Experimental data taken from patent US20240166587A1, “SARS-CoV-2 inhibitors - artificial compounds” (priority 2021, published 2024).
Values joined by “and” are separate entries in the source; they are usually repeats but may differ in a detail not shown here. Identical values can stand only once. Like-named read-outs stand apart in the source and are kept apart here.

Assays:
[1] = system: SARS-CoV-2; type: cell-based; conditions: Vero cells; for Experiment 2: repeat of TCID50 assay with a dose of 50 uM / Experiment 2: Fold reduction of TCID50 / Experiment 3: repeat of TCID50 assay with a dose of 50 uM / Experiment 3: Fold reduction of TCID50: substance 50 μM; for Experiment 2: Fold reduction of TCID50: experiment 2, versus DMSO ctrl; for Experiment 3: Fold reduction of TCID50: experiment 3, versus DMSO ctrl
[2] = system: SARS-CoV-2; type: cell-based; conditions: Vero cells, different concentrations, 48 hours
[3] = system: SARS-CoV-2; type: cell-based; conditions: for effect on virus proliferation after short term incubation: versus untreated controls
[4] = target: T1, RBD to ACE2 receptor binding (Severe acute respiratory syndrome coronavirus 2, UniProt P0DTC2); experiment: Molecular interaction assay to detect inhibition of RBD to ACE2 receptor binding; conditions: for inhibitory effect on binding to ACE2 receptor: His-tagged RBD, plate bound ACE2
T1 construct: 200 ng His-tagged RBD was incubated
Experimental: The molecular interaction assay to detect inhibition of RBD to ACE2 receptor binding was performed as described (Gattinger et al., Allergy, 76 (2021), 878-883) with following alterations: 200 ng His-tagged RBD was incubated with various doses (100, 50, 25, 12.2, and 6 mM) of substance X for three hours at RT followed by a 3-hours overlay onto plate bound ACE2 (2 μg/ml). Bound RBD was then detected with a mouse monoclonal anti-His antibody followed by an HRP-labelled anti-mouse IgG1 antibody and detected with ABTS detected. All measurements were performed in duplicates with a variation of <5%.

[5] = system: SARS-CoV-2; type: cell-based; conditions: Vero E6, 48 hrs

Row | Compound | Experiment 1: TCID50 assay with 2 doses/substance, 10 μM [1] | Experiment 2: repeat of TCID50 assay with a dose of 50 uM [1] | Experiment 2: Fold reduction of TCID50 [1] [fold] | Experiment 3: repeat of TCID50 assay with a dose of 50 uM [1] | Experiment 3: Fold reduction of TCID50 [1] | Experiment 1: TCID50 assay with 2 doses/substance, 100 μM [1] | inhibition of virus proliferation [2] | ct values after short term incubation ([3]; 25 μM for one hour) | ct values after short term incubation ([3]; 50 μM for one hour) | effect on virus proliferation after short term incubation [3] | inhibition at 100 µM ([4]; 100 μM) [%] | inhibitory effect on binding to ACE2 receptor [4] | inhibition of viral replication ([5]; 80 μM) | inhibition of viral replication ([5]; 100 μM)
1 | O=C(O)c1cc(O)c(O)c(O)c1 [Compound I, gallic acid] | 3.16 × 10^5 TCID50/mL | 3.16 × 10^4 TCID50/mL | 9.97 | 4.44 × 10^5 TCID50/mL | 9.27 fold | 3.56 × 10^5 TCID50/mL |  |  |  |  |  |  |  | 
2 | Oc1cc(/C=C/c2cc(O)c(O)c(O)c2)cc(O)c1O [Compound X, 3,3′,4,4′,5,5′-hexahydroxy-trans-stilbene] | 5.88 × 10^4 TCID50/mL | 3.16 × 10^3 TCID50/mL | 99.7 | 1.95 × 10^3 TCID50/mL | 2107 fold and 2107.2 fold | 4.64 × 10^2 TCID50/mL | inhibition of virus proliferation | significantly increased | significantly increased | could inhibit virus proliferation in a concentration dependent manner | 21 to 31 | could inhibit binding to ACE2 in a concentration dependent manner | inhibit viral replication completely | inhibit viral replication completely
3 | Oc1cc(O)c2c(c1)O[C@H](c1cc(O)c(O)c(O)c1)[C@H](O)C2 [VII, (−)-epigallocatechin] | 2.15 × 10^4 TCID50/mL | 2.89 × 10^5 TCID50/mL | 1.09 | 3.80 × 10^5 TCID50/mL | 7.09 fold | 3.16 × 10^3 TCID50/mL |  |  |  |  |  |  |  | 
4 | Oc1ccc(/C=C/c2cc(O)cc(O)c2)cc1 [trihydroxystilbene, trans-3,5,4′-trihydroxystilbene] |  |  |  |  |  |  |  |  |  |  |  |  |  | low inhibition of viral replication
5 | (−) epigallocatechin gallate [Compound IV] | 3.36 × 10^4 TCID50/mL | 3.16 × 10^3 TCID50/mL | 99.7 | 5.12 × 10^3 TCID50/mL | 802 fold and 802.3 fold | cytotoxic | inhibition of virus proliferation |  |  | did not have any effects on the virus proliferation |  | did not show any inhibitory effects |  | 
6 | (−)-gallocatechin gallate [VIII] | 2.15 × 10^5 TCID50/mL | 3.16 × 10^3 TCID50/mL | 99.7 | 8 × 10^5 TCID50/mL | 5.14 fold | 4.64 × 10^2 TCID50/mL | inhibition of virus proliferation |  |  | did not have any effects on the virus proliferation |  | did not show any inhibitory effects |  | 
